According to publication PMC12881674, “Activation of TRPV3 channels in bladder cancer cells stimulates ATP release” (Molecular Pharmacology, 2025):

Target: T1, human TRPA1 (Homo sapiens, UniProt O75762)
T1 construct: expressed in transfected cells; host or cells: HEK293
Experiment: fluo-4 Ca2+ assay selectivity, HEK cells expressing human TRPA1
Assay type: cell-based
Source text: KU-19-19 (DSMZ no. ACC 395), CAL-29 (DSMZ no. ACC 515), 647-V (DSMZ no. ACC 414), RT-4 (DSMZ no. ACC 412), and RT-112 (DSMZ no. ACC 418) bladder cancer cell lines were obtained from the Leibniz Institute DSMZ (German Collection of Microorganisms and Cell Cultures). Human TRPV3 (NM_145068, purchased from OriGene) and mouse TRPV3 (NM_001371006), rat TRPV1, mouse TRPV2, mouse TRPV4, human TRPM2, human TRPM8, and human TRPA1 were stably transfected in HEK293 cells as described before.[27] […]
All fluorometric Ca^2+ assays were performed in HBS buffer at room temperature. […] For the primary compound screening and the generation of concentration-response analyses, a robotic liquid handling station (Freedom Evo 150; Tecan) with a built-in custom-made fluorescence plate imager was used. […] Fluorescence was excited using a 470-nm light-emitting diode, and emitted light was imaged through a 515-nm–long pass filter with a cooled Zyla 5.5 camera (Andor). Fluorescence was recorded and processed under the control of the μ-Manager 2.0 gamma software (https://micro-manager.org.[28]). After recording baseline fluorescence, compounds were dispensed into the wells via the liquid handling device. […] For further analysis, fluorescence signals were calculated for each well, corrected for background intensities and normalized to the initial signals. […]

T1 sequence (O75762 whole entry): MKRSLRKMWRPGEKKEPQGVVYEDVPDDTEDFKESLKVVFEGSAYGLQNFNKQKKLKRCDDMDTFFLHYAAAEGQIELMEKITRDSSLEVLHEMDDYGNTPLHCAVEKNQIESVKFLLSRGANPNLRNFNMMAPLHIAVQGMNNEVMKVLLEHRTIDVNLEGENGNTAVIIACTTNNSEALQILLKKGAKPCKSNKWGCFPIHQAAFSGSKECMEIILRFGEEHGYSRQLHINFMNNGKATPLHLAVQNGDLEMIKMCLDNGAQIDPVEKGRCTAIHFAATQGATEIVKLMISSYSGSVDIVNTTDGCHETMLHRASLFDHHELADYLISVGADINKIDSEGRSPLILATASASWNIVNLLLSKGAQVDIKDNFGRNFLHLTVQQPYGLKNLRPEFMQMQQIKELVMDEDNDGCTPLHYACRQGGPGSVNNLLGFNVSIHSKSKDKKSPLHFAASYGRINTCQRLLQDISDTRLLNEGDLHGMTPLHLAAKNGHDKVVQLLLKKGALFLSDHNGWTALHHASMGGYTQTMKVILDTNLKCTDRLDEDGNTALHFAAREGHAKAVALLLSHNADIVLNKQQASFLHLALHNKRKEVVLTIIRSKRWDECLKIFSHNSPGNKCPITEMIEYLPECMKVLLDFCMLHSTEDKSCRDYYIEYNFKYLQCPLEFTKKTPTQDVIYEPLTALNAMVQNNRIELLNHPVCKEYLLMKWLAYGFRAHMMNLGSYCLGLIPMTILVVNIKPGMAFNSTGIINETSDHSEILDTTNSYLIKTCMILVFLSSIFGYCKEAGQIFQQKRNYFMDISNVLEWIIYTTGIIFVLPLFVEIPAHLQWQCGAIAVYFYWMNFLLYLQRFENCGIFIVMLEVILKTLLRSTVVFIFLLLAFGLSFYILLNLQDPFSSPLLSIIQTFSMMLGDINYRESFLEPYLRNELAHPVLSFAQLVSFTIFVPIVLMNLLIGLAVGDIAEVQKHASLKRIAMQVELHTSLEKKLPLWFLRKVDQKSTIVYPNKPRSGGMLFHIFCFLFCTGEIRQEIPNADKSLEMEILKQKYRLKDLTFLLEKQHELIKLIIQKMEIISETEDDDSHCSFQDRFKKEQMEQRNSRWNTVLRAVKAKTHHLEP

## COC(=O)C12CN(Cc3ccccc3)CC1(C(=O)OC)CN(Cc1ccccc1)C2 (stereo not shown) [AV3-1]
  effect on TRPA1: activates
